Data: PubChem BioAssay AID256 (DTP/NCI, 2004)
Inconclusive results and toxic doses are left out. How the source made its calls: active means survival T/C of 150% or more; inactive means T/C below 125% in these data.

System: CD2F1 mice, L1210 leukemia ip, survival T/C
Assay: NCI In Vivo Anticancer Drug Screen. Data for tumor model L1210 Leukemia (intraperitoneal) in CD2F1 (CDF1) mice
Details: higher = longer survival
Method in brief: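 Each value reflects a quotient of treated over vehicle control outcomes in mice with a transplanted tumor.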

[1] = endpoint: mean survival time, dose: 50.0 mg/kg/injection, schedule: Q01DX009 (ip), vehicle: saline with Tween-80
[2] = endpoint: mean survival time, dose: 100.0 mg/kg/injection, schedule: Q01DX009 (ip), vehicle: saline with Tween-80
[3] = endpoint: mean survival time, dose: 200.0 mg/kg/injection, schedule: Q01DX009 (ip), vehicle: saline with Tween-80
[4] = endpoint: mean survival time, dose: 100.0 mg/kg/injection, schedule: Q01DX001 (ip), vehicle: saline with Tween-80
[5] = endpoint: mean survival time, dose: 200.0 mg/kg/injection, schedule: Q01DX001 (ip), vehicle: saline with Tween-80
[6] = endpoint: mean survival time, dose: 100.0 mg/kg/injection, schedule: Q01DX009 (ip), vehicle: Klucel (hydroxypropylcellulose) (HPC)
[7] = endpoint: mean survival time, dose: 200.0 mg/kg/injection, schedule: Q01DX009 (ip), vehicle: Klucel (hydroxypropylcellulose) (HPC)
[8] = endpoint: mean survival time, dose: 400.0 mg/kg/injection, schedule: Q01DX009 (ip), vehicle: Klucel (hydroxypropylcellulose) (HPC)

Measured: T/C

C=C(c1ccc(OC)c(OC)c1)c1nccc2cc(OC)c(OC)cc12
inactive: endpoint: median survival time, dose: 50.0 mg/kg/injection, schedule: Q01DX009 (ip), vehicle: Klucel (hydroxypropylcellulose) (HPC) 101 % of control | endpoint: median survival time, dose: 100.0 mg/kg/injection, schedule: Q01DX009 (ip), vehicle: Klucel (hydroxypropylcellulose) (HPC) 89 % of control | endpoint: median survival time, dose: 200.0 mg/kg/injection, schedule: Q01DX009 (ip), vehicle: Klucel (hydroxypropylcellulose) (HPC) 95 % of control | endpoint: median survival time, dose: 400.0 mg/kg/injection, schedule: Q01DX009 (ip), vehicle: Klucel (hydroxypropylcellulose) (HPC) 97 % of control | endpoint: median survival time, dose: 800.0 mg/kg/injection, schedule: Q01DX009 (ip), vehicle: Klucel (hydroxypropylcellulose) (HPC) 108 % of control

C=CCC1CN(CCC(O)c2ccc(F)cc2)CCC1(OC(=O)CC)c1ccccc1 (centres undefined)
inactive: endpoint: mean survival time, dose: 100.0 mg/kg/injection, schedule: Q04DX002 (ip), vehicle: Klucel (hydroxypropylcellulose) (HPC) 93 % of control | endpoint: mean survival time, dose: 200.0 mg/kg/injection, schedule: Q04DX002 (ip), vehicle: Klucel (hydroxypropylcellulose) (HPC) 101 % of control | endpoint: mean survival time, dose: 400.0 mg/kg/injection, schedule: Q04DX002 (ip), vehicle: Klucel (hydroxypropylcellulose) (HPC) 104 % of control

NCCCOCCOCCOCCOCCCN
inactive: endpoint: mean survival time, dose: 25.0 mg/kg/injection, schedule: Q04DX002 (ip), vehicle: saline 105 % of control | endpoint: mean survival time, dose: 50.0 mg/kg/injection, schedule: Q04DX002 (ip), vehicle: saline 101 % of control | endpoint: mean survival time, dose: 100.0 mg/kg/injection, schedule: Q01DX001 (ip), vehicle: saline sonified 97 % of control | endpoint: mean survival time, dose: 100.0 mg/kg/injection, schedule: Q04DX002 (ip), vehicle: saline 101 % of control

OCCNc1c(Cl)ccc(Cl)c1Cl
inactive: [1] 107 % of control | [2] 103 % of control | [3] 98 % of control

O=C(O)C(O)C(O)C(O)C(O)CO (centres undefined)
inactive: [1] 109 % of control | [2] 97 % of control | [3] 106 % of control

N#CC1(C#N)OC(C#N)(C#N)C2C1C=CC1C2C1(C#N)C#N (centres undefined)
inactive: endpoint: mean survival time, dose: 6.25 mg/kg/injection, schedule: Q01DX001 (ip), vehicle: saline with Tween-80 108 % of control | endpoint: mean survival time, dose: 12.5 mg/kg/injection, schedule: Q01DX001 (ip), vehicle: saline with Tween-80 97 % of control | endpoint: mean survival time, dose: 25.0 mg/kg/injection, schedule: Q01DX001 (ip), vehicle: saline with Tween-80 97 % of control

O=c1ccnc[nH]1
inactive: endpoint: mean survival time, dose: 100.0 mg/kg/injection, schedule: Q04DX003 (ip), vehicle: saline sonified 93 % of control | endpoint: mean survival time, dose: 200.0 mg/kg/injection, schedule: Q04DX003 (ip), vehicle: saline sonified 104 % of control | endpoint: mean survival time, dose: 400.0 mg/kg/injection, schedule: Q04DX003 (ip), vehicle: saline sonified 104 % of control

CCC(Cc1ccccc1)C(=O)O (centres undefined)
inactive: endpoint: mean survival time, dose: 100.0 mg/kg/injection, schedule: Q04DX003 (ip), vehicle: saline 108 % of control | endpoint: mean survival time, dose: 200.0 mg/kg/injection, schedule: Q04DX003 (ip), vehicle: saline 97 % of control | endpoint: mean survival time, dose: 400.0 mg/kg/injection, schedule: Q04DX003 (ip), vehicle: saline 97 % of control

Fc1ccc(NC2(c3nnnn3C3CCCCC3)CCN(Cc3ccccc3)CC2)cc1
inactive: [4] 95 % of control | [5] 102 % of control | endpoint: mean survival time, dose: 400.0 mg/kg/injection, schedule: Q01DX001 (ip), vehicle: saline with Tween-80 101 % of control

Cc1ccc(NC(=O)Nc2ccccc2C(N)=O)c([N+](=O)[O-])c1
inactive: [6] 95 % of control | [7] 89 % of control | [8] 95 % of control

O=C1NC(=O)C2(CCN(CC3COc4ccccc4O3)CC2)N1c1ccccc1 (centres undefined)
inactive: endpoint: mean survival time, dose: 50.0 mg/kg/injection, schedule: Q01DX001 (ip), vehicle: saline with Tween-80 96 % of control | [4] 101 % of control | [5] 96 % of control

CC(C)NCCCC(=O)O
inactive: endpoint: mean survival time, dose: 12.5 mg/kg/injection, schedule: Q01DX009 (ip), vehicle: water 96 % of control | endpoint: mean survival time, dose: 25.0 mg/kg/injection, schedule: Q01DX009 (ip), vehicle: water 98 % of control | endpoint: mean survival time, dose: 50.0 mg/kg/injection, schedule: Q01DX009 (ip), vehicle: water 90 % of control | endpoint: mean survival time, dose: 100.0 mg/kg/injection, schedule: Q01DX009 (ip), vehicle: water 98 % of control | endpoint: mean survival time, dose: 200.0 mg/kg/injection, schedule: Q01DX009 (ip), vehicle: water 95 % of control

CCCCCC(=O)C(C)C(C)C (centres undefined)
inactive: [1] 97 % of control | [2] 97 % of control | [3] 97 % of control

CCN(CC)C(=O)Cc1ccc2c3c(cccc13)CC2
inactive: endpoint: mean survival time, dose: 100.0 mg/kg/injection, schedule: Q04DX003 (ip), vehicle: saline with Tween-80 98 % of control | endpoint: mean survival time, dose: 200.0 mg/kg/injection, schedule: Q04DX003 (ip), vehicle: saline with Tween-80 98 % of control | endpoint: mean survival time, dose: 400.0 mg/kg/injection, schedule: Q04DX003 (ip), vehicle: saline with Tween-80 92 % of control

CC(O)(P(=O)(O)O)P(=O)(O)O.[NH-]CC[NH-].[NH-]CC[NH-].[Pt+2].[Pt+2]
inactive: endpoint: mean survival time, dose: 3.13 mg/kg/injection, schedule: Q04DX003 (ip), vehicle: distilled water + Tween-80 104 % of control | endpoint: mean survival time, dose: 6.25 mg/kg/injection, schedule: Q04DX003 (ip), vehicle: distilled water + Tween-80 104 % of control | endpoint: mean survival time, dose: 12.5 mg/kg/injection, schedule: Q04DX003 (ip), vehicle: distilled water + Tween-80 88 % of control | endpoint: mean survival time, dose: 25.0 mg/kg/injection, schedule: Q04DX003 (ip), vehicle: distilled water + Tween-80 103 % of control | endpoint: mean survival time, dose: 50.0 mg/kg/injection, schedule: Q04DX003 (ip), vehicle: distilled water + Tween-80 119 % of control | endpoint: mean survival time, dose: 100.0 mg/kg/injection, schedule: Q04DX003 (ip), vehicle: distilled water + Tween-80 124 % of control | endpoint: mean survival time, dose: 200.0 mg/kg/injection, schedule: Q04DX003 (ip), vehicle: distilled water + Tween-80 111 % of control

CN(C)N1C(=O)c2ccccc2C1=O
inactive: endpoint: mean survival time, dose: 100.0 mg/kg/injection, schedule: Q04DX003 (ip), vehicle: other 96 % of control | endpoint: mean survival time, dose: 200.0 mg/kg/injection, schedule: Q04DX003 (ip), vehicle: other 104 % of control | endpoint: mean survival time, dose: 400.0 mg/kg/injection, schedule: Q04DX003 (ip), vehicle: other 98 % of control

CCCCN1CCN(CCCC)C1CCC
inactive: endpoint: mean survival time, dose: 25.0 mg/kg/injection, schedule: Q01DX009 (ip), vehicle: saline with Tween-80 98 % of control | [1] 102 % of control | [2] 96 % of control

O=C1OCC2C(=O)OCC12 (centres undefined)
inactive: endpoint: mean survival time, dose: 50.0 mg/kg/injection, schedule: Q01DX001 (ip), vehicle: saline 107 % of control | endpoint: mean survival time, dose: 100.0 mg/kg/injection, schedule: Q01DX001 (ip), vehicle: saline 101 % of control | endpoint: mean survival time, dose: 200.0 mg/kg/injection, schedule: Q01DX001 (ip), vehicle: saline 107 % of control | endpoint: mean survival time, dose: 400.0 mg/kg/injection, schedule: Q01DX001 (ip), vehicle: saline 109 % of control

Cc1cc(Cl)ccc1N=Cc1ccc2c(c1)OCO2
inactive: endpoint: mean survival time, dose: 100.0 mg/kg/injection, schedule: Q01DX001 (ip), vehicle: Klucel (hydroxypropylcellulose) (HPC) 95 % of control | [6] 108 % of control | endpoint: mean survival time, dose: 200.0 mg/kg/injection, schedule: Q01DX001 (ip), vehicle: Klucel (hydroxypropylcellulose) (HPC) 102 % of control | [7] 105 % of control | endpoint: mean survival time, dose: 400.0 mg/kg/injection, schedule: Q01DX001 (ip), vehicle: Klucel (hydroxypropylcellulose) (HPC) 95 % of control | [8] 98 % of control

N#CSCc1ccccc1
inactive: endpoint: mean survival time, dose: 12.5 mg/kg/injection, schedule: Q01DX009 (ip), vehicle: saline with Tween-80 100 % of control

COc1cc(OC)c(NC(=O)NC(C)C)cc1Cl
inactive: [2] 100 % of control | [3] 96 % of control | endpoint: mean survival time, dose: 400.0 mg/kg/injection, schedule: Q01DX009 (ip), vehicle: saline with Tween-80 100 % of control
